Experimental data taken from ChEMBL document CHEMBL3351649, “A new goniothalamin N-acylated aza-derivative strongly downregulates mediators of signaling transduction associated with pancreatic cancer aggressiveness” (Eur J Med Chem, 2014).
Activity calls are given as the source filed them. The rule behind the calls is not given here.

Tests used:
PANC-1 [1] = test: Reduction in AXL protein level in human PANC1 cells at 30 to 60 uM after 24 hrs by Western blot analysis; assay type: functional, cell-based
PANC-1 [2] = test: Reduction in p-RB at Ser795 protein level in human PANC1 cells at 30 to 60 uM after 24 hrs by Western blot analysis; assay type: functional, cell-based
[3] = Antiproliferative activity against human PANC1 cells assessed as reduction in colonies after 15 days by colony assay; assay type: functional, cell-based; conditions: PANC-1, 360 h
PANC-1 [4] = test: Induction of apoptosis in human PANC1 cells assessed as reduction in pro-caspase-3 level at 30 to 60 uM after 24 hrs by Western blot analysis; assay type: functional, cell-based
[5] = target: Tyrosine-protein kinase receptor UFO (Homo sapiens) (UniProt P30530); test: Effect on AXL in human PANC1 cells assessed as increase in p-ERK at Thr202/Tyr 204 protein level at 30 to 60 uM after 24 hrs by Western blot analysis; assay type: cell-based; conditions: PANC-1
PANC-1 [6] = test: Cytoprotective activity in 1 hr GSH-pretreated human PANC1 cells assessed as increase in cell viability at 10 to 100 uM after 24 hrs by MTT reduction assay; assay type: functional, cell-based
PANC-1 [7] = test: Induction of intracellular ROS production in human PANC1 cells at 1.5 to 3 uM after 1 hr using DCFH-DA by flow cytometry; assay type: functional, cell-based
PANC-1 [8] = test: (§1) Cytotoxicity against human PANC1 cells assessed as reduction in cell viability after 24 hrs by MTT reduction assay; assay type: functional, cell-based
[9] = as §1; assay type: functional, cell-based; conditions: PANC-1, 24 h
PANC-1 [10] = test: Induction of apoptosis in human PANC1 cells assessed as increase in BAX/BCL-2 ratio at 30 to 60 uM after 24 hrs by Western blot analysis; assay type: functional, cell-based
PANC-1 [11] = test: Reduction in c-Myc protein level in human PANC1 cells at 30 to 60 uM after 24 hrs by Western blot analysis; assay type: functional, cell-based
[12] = Antiproliferative activity against human PANC1 cells assessed as reduction in colonies at 30 uM after 15 days by colony assay; assay type: functional, PANC-1; parameters: scale not given: the % may be the effect or the level left
[13] = Selectivity ratio of IC50 for human HaCaT cells to IC50 for human PANC1 cells; assay type: ADME, cell-based; conditions: HaCaT cells versus PANC1 cells, read-out: Ratio IC50
HaCaT = test: Cytotoxicity against human HaCaT cells assessed as reduction in cell viability after 24 hrs by MTT reduction assay; assay type: cell-based
PANC-1 [14] = test: Induction of apoptosis in human PANC1 cells assessed as increase in cleaved PARP-1 level at 30 to 60 uM after 24 hrs by Western blot analysis; assay type: functional, cell-based
[15] = Chemical reactivity under non-physiological condition at 25 mM using gluthatione as thiol nucleophile assessed as conjugate addition of GSH to compound after 24 hrs by 1H NMR spectroscopy; assay type: physicochemical; conditions: 25000 µM
PANC-1 [16] = test: Reduction in cyclin D1 protein level in human PANC1 cells at 30 to 60 uM after 24 hrs by Western blot analysis; assay type: functional, cell-based
[17] = Antiproliferative activity against human PANC1 cells assessed as reduction in colonies at 15 uM after 15 days by colony assay; assay type: functional, PANC-1; parameters: scale not given: the % may be the effect or the level left
[18] = Antiproliferative activity against human PANC1 cells assessed as reduction in colonies at 0.75 uM after 15 days by colony assay; assay type: functional, PANC-1; parameters: scale not given: the % may be the effect or the level left
PANC-1 [19] = test: Reduction in AXL protein level in human PANC1 cells at 1.5 to 3 uM after 24 hrs by Western blot analysis; assay type: functional, cell-based
[20] = target: Tyrosine-protein kinase receptor UFO (Homo sapiens) (UniProt P30530); test: Inhibition of AXL in human PANC1 cells assessed as inhibition of ERK phosphorylation at Thr202/Tyr 204 at 1.5 to 3 uM after 24 hrs by Western blot analysis; assay type: cell-based; conditions: PANC-1
[21] = target: Tyrosine-protein kinase receptor UFO (Homo sapiens) (UniProt P30530); test: Inhibition of AXL in human PANC1 cells assessed as reduction in HIF-1alpha expression at 1.5 to 3 uM after 24 hrs by Western blot analysis; assay type: cell-based; conditions: PANC-1
PANC-1 [22] = test: Induction of apoptosis in human PANC1 cells assessed as reduction in pro-caspase-3 level at 1.5 to 3 uM after 24 hrs by Western blot analysis; assay type: functional, cell-based
PANC-1 [23] = test: Cytotoxicity against human PANC1 cells assessed as reduction in cell viability at 10 to 100 uM after 24 hrs by MTT reduction assay in presence of GSH; assay type: functional, cell-based
PANC-1 [24] = test: Induction of apoptosis in human PANC1 cells assessed as increase in BAX/BCL-2 ratio at 1.5 to 3 uM after 24 hrs by Western blot analysis; assay type: functional, cell-based
PANC-1 [25] = test: Reduction in p-RB at Ser795 protein level in human PANC1 cells at 1.5 to 3 uM after 24 hrs by Western blot analysis; assay type: functional, cell-based
[26] = target: Tyrosine-protein kinase receptor UFO (Homo sapiens) (UniProt P30530); test: Inhibition of AXL in human PANC1 cells assessed as reduction in VEGF level at 1.5 to 3 uM after 24 hrs by Western blot analysis; assay type: cell-based; conditions: PANC-1
PANC-1 [27] = test: Induction of apoptosis in human PANC1 cells assessed as increase in cleaved PARP-1 level at 1.5 to 3 uM after 24 hrs by Western blot analysis; assay type: functional, cell-based
PANC-1 [28] = test: Induction of intracellular ROS production in human PANC1 cells at 25 to 100 uM after 1 hr using DCFH-DA by flow cytometry; assay type: functional, cell-based
[29] = Antiproliferative activity against human PANC1 cells assessed as reduction in colonies at 1.5 uM after 15 days by colony assay; assay type: functional, PANC-1; parameters: scale not given: the % may be the effect or the level left
PANC-1 [30] = test: Reduction in cyclin D1 protein level in human PANC1 cells at 1.5 to 3 uM after 24 hrs by Western blot analysis; assay type: functional, cell-based
PANC-1 [31] = test: Reduction in c-Myc protein level in human PANC1 cells at 1.5 to 3 uM after 24 hrs by Western blot analysis; assay type: functional, cell-based

Chain of Tyrosine-protein kinase receptor UFO (Homo sapiens) (P30530 whole entry): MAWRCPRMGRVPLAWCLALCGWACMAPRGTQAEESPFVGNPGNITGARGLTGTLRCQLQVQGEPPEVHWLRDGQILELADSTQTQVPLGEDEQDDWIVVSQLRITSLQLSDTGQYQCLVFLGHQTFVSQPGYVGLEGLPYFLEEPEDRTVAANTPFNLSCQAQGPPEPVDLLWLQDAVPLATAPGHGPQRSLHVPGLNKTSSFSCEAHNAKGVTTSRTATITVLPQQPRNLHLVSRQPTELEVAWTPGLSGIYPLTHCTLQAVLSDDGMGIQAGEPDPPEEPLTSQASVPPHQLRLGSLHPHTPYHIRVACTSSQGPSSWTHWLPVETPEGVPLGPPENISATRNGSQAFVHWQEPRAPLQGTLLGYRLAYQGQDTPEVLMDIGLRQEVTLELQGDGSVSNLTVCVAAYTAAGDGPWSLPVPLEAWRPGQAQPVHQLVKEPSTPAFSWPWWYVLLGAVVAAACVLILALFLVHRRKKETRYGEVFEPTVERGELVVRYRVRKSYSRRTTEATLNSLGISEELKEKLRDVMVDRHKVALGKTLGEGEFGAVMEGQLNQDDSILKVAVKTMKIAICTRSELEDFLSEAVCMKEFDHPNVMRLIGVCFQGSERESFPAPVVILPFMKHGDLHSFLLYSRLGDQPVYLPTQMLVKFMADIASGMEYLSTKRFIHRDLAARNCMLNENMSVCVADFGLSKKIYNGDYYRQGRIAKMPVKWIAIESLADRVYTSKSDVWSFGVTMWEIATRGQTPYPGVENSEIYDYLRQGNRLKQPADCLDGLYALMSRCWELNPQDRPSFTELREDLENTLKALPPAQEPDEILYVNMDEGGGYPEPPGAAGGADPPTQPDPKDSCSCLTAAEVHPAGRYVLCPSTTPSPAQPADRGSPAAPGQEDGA

Q: For `O=C1C=CC[C@H](/C=C/c2ccccc2)O1` [GONIOTHALAMIN], which Activity (PANC-1 [1]) is on record?
A: Active

Q: What about the Activity (PANC-1 [2]) of the same compound?
A: Active

Q: What about the IC50 [3] of the same compound?
A: 65 µM

Q: What about the Activity (PANC-1 [4]) of the same compound?
A: Active

Q: And the Activity [5]?
A: Active

Q: What about the Activity (PANC-1 [6]) of the same compound?
A: Active

Q: And the Activity (PANC-1 [7])?
A: Active

Q: What about the Activity (PANC-1 [8]) of the same compound?
A: Dose-dependent effect

Q: What about the IC50 [9] of the same compound?
A: 65 µM

Q: And the Activity (PANC-1 [10])?
A: Active

Q: And the Activity (PANC-1 [11])?
A: inactive

Q: What about the Activity [12] of the same compound?
A: 70%

Q: And the selectivity ratio [13]?
A: 0.44

Q: And the IC50 (HaCaT)?
A: 28.6 µM

Q: And the Activity (PANC-1 [14])?
A: Active

Q: And the Activity [15]?
A: Active

Q: And the Activity (PANC-1 [16])?
A: Active

Q: And the Activity [17]?
A: 50%

Q: With `O=C1C=CCC(/C=C/c2ccccc2)N1C(=O)CCc1ccc(O)c(O)c1` (configuration not stated) as the compound, how does the IC50 [9] read?
A: 6.8 µM

Q: For `C=CC(=O)N1C(=O)C=CCC1/C=C/c1ccccc1` (configuration not stated), which IC50 [9] is on record?
A: 8.1 µM

Q: What does the source list for `COc1cc(/C=C/C(=O)N2CCC=CC2=O)cc(OC)c1OC` [PIPLARTINE]?
A: IC50 [9]: 3.2 µM; selectivity ratio [13]: 5; IC50 (HaCaT): 16 µM

Q: What does the source list for `CC(=O)N1C(=O)C=CCC1/C=C/c1ccccc1` (configuration not stated)?
A: Activity (PANC-1 [8]): Dose-dependent effect; IC50 [9]: 42.3 µM

Q: Which IC50 [9] does the source give for `C/C=C/C(=O)N1C(=O)C=CCC1/C=C/c1ccccc1` (configuration not stated) here?
A: 4.2 µM

Q: For `COc1cc(/C=C/C(=O)N2C(=O)C=CCC2/C=C/c2ccccc2)ccc1O` (configuration not stated), which IC50 [9] is on record?
A: 15.6 µM

Q: For `O=C1C=CCC(/C=C/c2ccccc2)N1C(=O)/C=C/c1ccc(O)c(O)c1` (configuration not stated), which IC50 [9] is on record?
A: 5.7 µM

Q: With `O=C1C=CCC(/C=C/c2ccccc2)N1C(=O)/C=C/c1ccccc1` (configuration not stated) as the compound, how does the IC50 [9] read?
A: 16.3 µM

Q: Which results are given for `O=C1C=CCC(/C=C/c2ccccc2)N1` (configuration not stated)?
A: IC50 [9]: > 100 µM; Activity [15]: Not Active

Q: For `COc1cc(/C=C/C(=O)N2C(=O)C=CCC2/C=C/c2ccccc2)cc(OC)c1OC` (configuration not stated), which IC50 [3] is on record?
A: 2.7 µM

Q: What about the IC50 [9] of the same compound?
A: 2.7 µM

Q: What about the Activity [18] of the same compound?
A: 40%

Q: And the selectivity ratio [13]?
A: 3.14

Q: What about the Activity (PANC-1 [19]) of the same compound?
A: Active

Q: And the inhibition [20]?
A: Active

Q: And the inhibition [21]?
A: Active

Q: And the IC50 (HaCaT)?
A: 8.5 µM

Q: What about the Activity (PANC-1 [22]) of the same compound?
A: Active

Q: And the Activity (PANC-1 [23])?
A: Dose-dependent effect

Q: What about the Activity (PANC-1 [24]) of the same compound?
A: Active

Q: What about the Activity (PANC-1 [25]) of the same compound?
A: Active

Q: And the inhibition [26]?
A: Active

Q: What about the Activity (PANC-1 [27]) of the same compound?
A: Active

Q: What about the Activity (PANC-1 [28]) of the same compound?
A: Active

Q: And the Activity [15]?
A: Active

Q: And the Activity [29]?
A: 90%

Q: What about the Activity (PANC-1 [30]) of the same compound?
A: Active

Q: What about the Activity (PANC-1 [31]) of the same compound?
A: Active

Q: For `COC(=O)N1C(=O)C=CCC1/C=C/c1ccccc1` (configuration not stated), which Activity (PANC-1 [8]) is on record?
A: Dose-dependent effect

Q: And the IC50 [9]?
A: 53.7 µM
